# Laboratory results as given in US10253002B2, “Compounds and methods of treating infections” (Neoculi Pty Ltd., priority 2013, dated 2019).
# Tests used:
# Test in all cases: Broth microdilution MIC, Example 7 (NCL812 and analogues)
# [1] = tested on: MRSA; assay type: cell-based, Staphylococcus aureus; conditions: 24 hours, 1st and 2nd replicate rows; for MIC (μg/ml) at 24 hours, MRSA 1: isolate MRSA 1; for MIC (μg/ml) at 24 hours, MRSA 2: isolate MRSA 2
# Experimental: (§1) Minimum inhibitory concentrations (μg/ml) were determined using the broth microdilution method recommended by the Clinical and Laboratory Standards Institute (CLSI). MIC breakpoints were determined by visual assessment and then confirmed using an ELISA plate reader, measuring absorbance levels at 600 nm. Bacterial growth (turbidity) in the wells with antimicrobial was compared with the amount of growth (turbidity) in the growth-control well (containing no antimicrobial). All isolates were tested in duplicate, if there was a difference of greater than one two-fold dilution in the results, the test was repeated a third time. The purity of the isolates was closely monitored during testing by subculturing the prepared bacterial inoculum onto SBA (sheep blood agar). […] The MIC50, MIC20 and MIC range (minimum and maximum) were calculated for each of the bacterial groups.
# (§2) MICs were determined against two MRSA strains, two VRE strains and one strain each of E. coli and Pseudomonas aeruginosa.
# [2] = tested on: Escherichia coli; assay type: cell-based; conditions: 24 hours; 1st and 2nd replicate rows
# [3] = tested on: Pseudomonas aeruginosa; assay type: cell-based; conditions: 24 hours; 1st and 2nd replicate rows
# [4] = tested on: VRE; assay type: cell-based, Enterococcus spp.; conditions: for MIC (μg/ml) at 24 hours, VRE 1: isolate VRE 1; for MIC (μg/ml) at 24 hours, VRE 1 / MIC (μg/ml) at 24 hours, VRE 2: 1st and 2nd replicate rows; for MIC (μg/ml) at 24 hours, VRE 2: isolate VRE 2
# Experimental: as §1, §2
SMILES,"MIC (μg/ml) at 24 hours, MRSA 1 [1]","MIC (μg/ml) at 24 hours, MRSA 2 [1]","MIC (μg/ml) at 24 hours, E. coli [2]","MIC (μg/ml) at 24 hours, P. aeruginosa [3]","MIC (μg/ml) at 24 hours, VRE 1 [4]","MIC (μg/ml) at 24 hours, VRE 2 [4]","activity against VRE among analogues ([4]; MIC testing, two VRE strains)"
COc1cccc(/C=N/NC(=O)N/N=C/c2cccc(OC)c2)c1 [NCL010],>128 µg/mL,>128 µg/mL,>128 µg/mL,>128 µg/mL,>128 µg/mL,>128 µg/mL,
O=C(NN=Cc1cccc(C(F)(F)F)c1)NN=Cc1cccc(C(F)(F)F)c1 [NCL011],>128 µg/mL,>128 µg/mL,>128 µg/mL,>128 µg/mL,>128 µg/mL,32 µg/mL,greatest activity
O=C(NN=Cc1ccc(C(F)(F)F)cc1)NN=Cc1ccc(C(F)(F)F)cc1 [NCL012],>128 µg/mL,>128 µg/mL,>128 µg/mL,>128 µg/mL,>128 µg/mL,>128 µg/mL,
O=C(N/N=C/c1ccccc1C(F)(F)F)N/N=C/c1ccccc1C(F)(F)F [NCL013],>128 µg/mL,>128 µg/mL,>128 µg/mL,>128 µg/mL,>128 µg/mL,>128 µg/mL,
NC(=O)N/N=C/c1ccc(Cl)cc1 [NCL014],>128 µg/mL,>128 µg/mL,>128 µg/mL,>128 µg/mL,>128 µg/mL,>128 µg/mL,
Cl.N=C(N)N/N=C/c1ccccc1Cl [NCL015],>128 µg/mL,>128 µg/mL,>128 µg/mL,>128 µg/mL,>128 µg/mL,128 µg/mL,
Cl.N=C(N)N/N=C/c1ccccc1F [NCL016],>128 µg/mL,>128 µg/mL,>128 µg/mL,>128 µg/mL,>128 µg/mL,>128 µg/mL,
Cl.N=C(N)NN=Cc1cccc(F)c1 [NCL017],>128 µg/mL,>128 µg/mL,>128 µg/mL,>128 µg/mL,>128 µg/mL,>128 µg/mL,
Cc1ccccc1/C=N/NC(=O)N/N=C/c1ccccc1C [NCL018],>128 µg/mL,>128 µg/mL,>128 µg/mL,>128 µg/mL,>128 µg/mL,>128 µg/mL,
Cc1cccc(C=NNC(=O)NN=Cc2cccc(C)c2)c1 [NCL019],>128 µg/mL,>128 µg/mL,>128 µg/mL,>128 µg/mL,>128 µg/mL,>128 µg/mL,
Cl.N=C(N/N=C/c1ccccc1Cl)N/N=C/c1ccccc1Cl [NCL020],>128 µg/mL,>128 µg/mL,>128 µg/mL,>128 µg/mL,>128 µg/mL,>128 µg/mL,
Cl.N=C(NN=Cc1ccccc1F)NN=Cc1ccccc1F [NCL022],>128 µg/mL,>128 µg/mL,>128 µg/mL,>128 µg/mL,>128 µg/mL,>128 µg/mL,
Cl.N#Cc1ccc(C=NNC(=N)NN=Cc2ccc(C#N)cc2)cc1 [NCL024],>128 µg/mL,>128 µg/mL,>128 µg/mL,>128 µg/mL,>128 µg/mL,>128 µg/mL,
Cl.N#Cc1ccccc1C=NNC(=N)NN=Cc1ccccc1C#N [NCL025],>128 µg/mL,>128 µg/mL,>128 µg/mL,>128 µg/mL,>128 µg/mL,>128 µg/mL,
Cl.N#Cc1cccc(C=NNC(=N)NN=Cc2cccc(C#N)c2)c1 [NCL026],>128 µg/mL,>128 µg/mL,>128 µg/mL,>128 µg/mL,>128 µg/mL,>128 µg/mL,
COc1ccc(/C=N/NC(=N)N/N=C/c2ccc(OC)cc2)cc1.Cl [NCL027],>128 µg/mL,>128 µg/mL,>128 µg/mL,>128 µg/mL,>128 µg/mL,>128 µg/mL,
COc1ccccc1C=NNC(=N)NN=Cc1ccccc1OC.Cl [NCL028],>128 µg/mL,>128 µg/mL,>128 µg/mL,>128 µg/mL,>128 µg/mL,128 µg/mL,
